From patent US8329149B2, “Topical lightening composition and uses thereof” (Avon Products, Inc., priority 2009, dated 2012) come the findings set out here.

The experiment concerns B16 mouse melanoma cells. Briefly: B16 inhibition assay (melanin synthesis, normalized to MTT cell viability). It is filed as cell-based. The following applies: 7 days. As for the experimental part:
The B16 assay uses a cell line derived from mice with inhibition of tyrosinase as the end point. For the B16 assay, the active oxobutanoic acid tyrosinase inhibitors as disclosed herein in Table 1 were tested in a monolayer cell culture of B16 mouse melanoma cells. These cells are known to constitutively produce melanin and are a commonly utilized and accepted model system for monitoring the inhibition of melanin synthesis.
The B16 mouse melanoma cells were seeded (ATCC, cat. #: CRL-6475) into 96-well tissue culture-treated plates (BD Falcon) and treated with test actives diluted in DMEM without phenol red (Mediatech; cat. #: 17-205-CV) and examined for their ability to modulate pigment formation. Kojic acid was used as the positive control inhibitor. Cells were exposed to diluted test material or controls for 7 days. Following the treatment period, the level of pigment produced or melanin synthesized was quantified by reading the absorbance at 540 nm using a standard microplate reader (Tecan Group Ltd.).
After quantifying the amount of melanin, cell viability was determined using the MTT conversion method. The MTT conversion method measures the reduction of the MTT dye from a yellow colored, water-soluble, tetrazolium salt to a bluish-purple colored insoluble formazan precipitate by NAD(P)H-dependent microsomal dehydrogenase enzymes, which only function in viable cells. The intensity of the blue color is indicative of cell viability. After quantifying the amount of melanin pigment produced, the cells were exposed to MTT dye solution (1 mg/ml) for two to three hours. Formazan material was solubilized with reagent alcohol (95% ethanol: 5% isopropanol) and shaken on an orbital shaker for 15-30 minutes. MTT dye uptake and conversion by viable cells were determined by measuring the extracted formazan at 570 nm using a microplate reader. Total pigmentation was calculated, normalized to cell viability values and expressed as percent activity relative to control. The compounds A-H of Table 1 in a weight percent ranging from about 0.0002% to about 0.002% inhibited tyrosinase by a percent ranging from about 29% to about 87%. […]

Regarding `COc1ccc(C(=O)CC(NCc2cccnc2)C(=O)O)cc1` (stereo not drawn) [J, 2-(3-pyridylmethylamino)-4-(4′-methoxyphenyl)-4-oxobutanoic acid], the “B16 Results Percent inhibition of melanin” value runs as follows: (concentration 0.0001%) −27.84%; (concentration 0.001%) −53.63%.

In the case of `Cc1ccc(C(=O)CC(NCc2ccccc2)C(=O)O)cc1` (stereo not drawn) [K, 2-(benzylamino)-4-(4′-methylphenyl)-4-oxobutanoic acid], the “B16 Results Percent inhibition of melanin” value by setting is: (concentration 0.0001%) −46%; (concentration 0.001%) −67%.

With `Cc1ccc(C(=O)CC(NCc2ccco2)C(=O)O)cc1` (stereo not drawn) [I, 2-(2-furanylmethylamino)-4-(4′-methylphenyl)-4-oxobutanoic acid], the “B16 Results Percent inhibition of melanin” value by setting is: (concentration 0.0001%) −20%; (concentration 0.001%) −71%.
